Reference: patent US9249095B2, “2-methylthiopyrrolidines and their use for modulating bacterial quorum sensing” (priority 2011, dated 2016)

Experiments:
[1] = target: LasR (Pseudomonas aeruginosa, UniProt P25084); conditions: Smith et al, reference 9; cited from earlier work
[2] = tested on: P. aeruginosa las AHL-mediated pathway (PlasI-lacZ reporter); assay: Anti-quorum sensing β-galactosidase assay, las biomonitor (PlasI-lacZ with lasR expressed in E. coli DH5α); assay type: cell-based, Pseudomonas aeruginosa; conditions: for effect on las activity / lasI promoter expression (in words): tested at 50-200 μg/mL against 2 μM 3-oxo-C12-AHL
Procedure: Anti-Quorum Sensing Assay (β-Galactosidase Assay). An overnight (O/N) culture of Escherichia coli DH5α harboring the plasmids pSC11, which contains a PlasI-lacZ translational fusion (24), and pJN105L, which contains a PBAD-lasR expression plasmid (25) grown in LB media (10 g tryptone, 5 g yeast extract, 5 g sodium chloride per liter) supplemented with ampillicin (100 μg/ml) and gentamycin (15 μg/ml), was diluted to an OD600 of 0.150. At this time, arabinose (0.2% w/v), N-3-(oxododecanoyl)homoserine lactone (3-oxo-C12-AHL; 2 μM), and either the compound under analysis or solvent (DMSO), was added to the culture (1.5 mL). A negative control containing only solvent and arabinose (0.2% w/v) was also assayed. The cultures were incubated with shaking for three hours at 37° C.
(§1) The conditions for the rhl biomonitor Escherichia coli DH5α harboring pECP61.5 plasmid, which contains Ptac-rhlR and PrhlA-lacZ (4), were essentially same except that the LB medium was only supplemented with ampillicin (100 μg/ml), the O/N culture was diluted to an OD600 of 0.150, induced with 1 mM IPTG, 2 μM C4—HSL and the compounds or the controls added when the OD600 reached 1.0. After incubation at 37° C. for 4 hours with shaking, β-galactosidase activity was assayed as described previously (28). Miller units were calculated as described (29). Assays were repeated at least twice. For each biological replicate, experimental triplicates were performed and the average percent activity calculated by dividing the average Miller units from the samples containing compound or extract by the average Miller units from the sample containing solvent and multiplying by 100. Significance of inhibition was determined using a paired two-tailed Student t-test.
(§2) Strains: E. coli DH5α harboring a PBAD-lasR expression plasmid and a PlasI-lacZ translational fusion plasmid was used as a biomonitor for the P. aeruginosa Las QS system, and e. coli XL-1Blue harboring a plasmid containing rhlA::lacZ translational fusion and Ptac-rhlR was used as a biomonitor for the P. aeruginosa Rhl QS system. V. harveyi strain B392 (MAV) was used.
Screening against las signaling. To determine the effect of the lactams (7, 16, and 17) and the cyclic azahemiacetal derivatives (10, 20 and 21) on the P. aeruginosa las AHL-mediated pathway, a las-dependent β-galactosidase reporter (PlasI-lacZ) was expressed with lasR in E. coli (24-25). […] The effect of synthetic compounds on the las activity was also compared with the addition of DMSO as a solvent. The propylthio lactam 7a and its azahemiacetal counterpart 10a were initially screened at a concentration of 100 μg/mL for their activity against the las system. […] This was dependent upon the addition of 2 μM of 3-oxo-C12-AHL. […] Cell growth was not inhibited by the addition of lactam and azahemiacetal compounds at the tested concentrations (data not shown).

[3] = tested on: Vibrio harveyi; assay: Luminescence assay in Vibrio harveyi; assay type: cell-based
Procedure: Luminescence Assay: Vibrio harveyi was grown in AB medium. A 2.5 mL aliquot of overnight culture of V. harveyi was added to 2.5 μL and 10 μL of each compound as well as the solvent. The compound was dissolved in water or DMSO to serve as a control. Growth and luminescence were measured simultaneously in a modified Spec20 for three hours. Growth was measured as OD600 and luminescence was recorded in light units (1 LU=6.51×10^8 quanta/sec/mL).
as §2

[4] = tested on: P. aeruginosa rhl AHL-mediated pathway (PrhlA-lacZ reporter); assay: Anti-quorum sensing β-galactosidase assay, rhl biomonitor (PrhlA-lacZ with rhlR expressed in E. coli); assay type: cell-based, Pseudomonas aeruginosa; conditions: for activity at 50 µg/mL / activity at 100 µg/mL / activity at 150 µg/mL / activity at 200 µg/mL: Escherichia coli, 4 h, read-out: Percent Activity ± Standard Deviation (PrhlA-lacZ expression relative to DMSO treated control); for effect on rhl activity (in words): tested at 50-200 μg/mL against 2 μM C4-AHL
Procedure: as §1, §2
Screening Against the rhl Pathway. To determine the effect of the lactams (7, 16, and 17) and the cyclic azahemiacetal derivatives (10, 20 and 21) on the P. aeruginosa rhl AHL-mediated pathways, a rhl-dependent β-galactosidase reporter (PrhlA-lacZ) was expressed with rhlR in E. coli (24-25). […] The lactam analogues 7a-d stimulated rhl QS activities at higher concentrations with moderate potency. […] The strong inhibition observed with propylthio 10a and hexylthio 10b azahemiacetal analogues having side chain lengths similar to C4-AHL is in agreement with the structure activity relationship reported for various synthetic AHL mimetics targeting RhlR (26).

[5] = Pseudomonas aeruginosa, read-out: inhibition of las activity
[6] = Pseudomonas aeruginosa, read-out: inhibition of las reporter activity

Sequence of LasR (P25084 whole entry): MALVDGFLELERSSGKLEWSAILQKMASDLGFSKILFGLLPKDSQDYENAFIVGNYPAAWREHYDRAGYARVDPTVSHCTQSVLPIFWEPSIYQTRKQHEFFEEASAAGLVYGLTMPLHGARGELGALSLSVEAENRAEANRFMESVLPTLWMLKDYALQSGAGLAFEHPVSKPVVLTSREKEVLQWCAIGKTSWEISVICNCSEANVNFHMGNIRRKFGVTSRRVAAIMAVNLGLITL

| Compound | effect on las activity / lasI promoter expression (in words) [2] | activity at 50 µg/mL [4] [%] | activity at 100 µg/mL [4] [%] | activity at 150 µg/mL [4] [%] | activity at 200 µg/mL [4] [%] | effect on rhl activity (in words) [4] | other results |
| --- | --- | --- | --- | --- | --- | --- | --- |
| CCCCCCCCCC(=O)CC(=O)NC1CCCCC1=O (stereo not shown) [3-oxo-C12-(2-aminocyclohexanone)] | – | – | – | – | – | – | antagonism of LasR system (in words) [1]: strong antagonist |
| CCCCCCCCCC(=O)CC(=O)N[C@H]1CCOC1=O [3-oxo-C12-AHL, N-3-(oxododecanoyl)homoserine lactone, reference compound] | activated the PlasI-lacZ | – | – | – | – | – | – |
| N[C@@H](CCSCC1C(O)C(O)C(=O)N1Cc1ccccc1)C(=O)O (stereo partly shown) [BDOH] | – | – | – | – | – | – | anti-QS effect against V. harveyi (in words) [3]: strong anti-QS effect |
| CCCSCC1CCC(=O)N1 (stereo not shown) [Compound 7a, 5-(Propylthiomethyl)pyrrolidin-2-one] | inhibited las activity at all concentrations tested | 104 ± 24 | 118 | 104 ± 13 | 108 ± 17 | – | inhibition at 100 µg/mL [2, 5]: ~28%; effect on las activity / lasI promoter expression (in words) ([2]; listed as OMPP): dosed dependent inhibition |
| CCCCCCSCC1CCC(=O)N1 (stereo not shown) [Compound 7b, 5-(Hexylthiomethyl)pyrrolidin-2-one] | dosed dependent inhibition | 126 ± 8 | 126 ± 29 | 130 ± 31 | – | most active | – |
| CCCCCCCCCSCC1CCC(=O)N1 (stereo not shown) [Compound 7c, 5-(Nonylthiomethyl)pyrrolidin-2-one] | greatest inhibition at all concentrations tested | 95 ± 3 | 115 ± 30 | 108 ± 12 | 137 ± 46 | – | inhibition at 50 µg/mL [2, 5]: 28% |
| CCCCCCCCCCCCSCC1CCC(=O)N1 (stereo not shown) [Compound 7d, 5-(Dodecylthiomethyl)pyrrolidin-2-one] | greatest inhibition at all concentrations tested | 103 ± 7 | 106 ± 6 | 109 ± 8 | 106 ± 5 | – | inhibition at 50 µg/mL [2, 5]: 48% |
| CCCSCC1CCC(O)N1 (stereo not shown) [Compound 10a, 5-(Propylthiomethyl)pyrrolidin-2-ol] | – | 121 ± 6 | 138 ± 3 | – | 9 | inhibited rhl activity | stimulation of las reporter activity ([2]; 50 μg/mL, 2 μM 3-oxo-C12-AHL): ~2.3 fold; enhancement of las reporter activity ([2]; 100 μg/mL, 2 μM 3-oxo-C12-AHL): 15%; inhibition at 150 µg/mL [2, 6]: 69%; inhibition at 200 µg/mL [2, 6]: 89%; anti-QS effect against V. harveyi (in words) [3]: strong anti-QS effect |
| CCCCCCSCC1CCC(O)N1 (stereo not shown) [Compound 10b, 5-(Hexylthiomethyl)pyrrolidin-2-ol] | stimulated QS at 50 μg/mL but with much lesser potency | 26 | – | – | – | inhibited rhl activity | inhibition of las activity ([2]; all concentrations tested higher than 50 μg/mL): 100%; inhibition of rhl signaling (in words) ([4]; concentrations of 100 μg/mL and higher): completely inhibited |
| CCCCCCCCCSCC1CCC(O)N1 (stereo not shown) [Compound 10c, 5-(Nonanylthiomethyl)pyrrolidin-2-ol] | moderate activity | 93 ± 12 | 80 ± 13 | 100 ± 11 | 99 ± 3 | inactive | – |
| CCCCCCCCCCCCSCC1CCC(O)N1 (stereo not shown) [Compound 10d, 5-(Dodecylthiomethyl)pyrrolidin-2-ol] | moderate activity | 98 ± 13 | 93 ± 27 | 91 ± 8 | 96 ± 5 | inactive | – |
| CCCCCCSCC1NC(=O)C(O)C1O (stereo not shown) [Compound 16, 3,4-Dihydroxy-5-(hexylthiomethyl)pyrrolidin-2-one] | inhibit las activity at all concentrations tested but only with moderate potency | 132 ± 36 | 129 ± 10 | 148 ± 9 | 161 ± 7 | stimulated rhl activities with moderate potency | – |
| CCCCCCCCCSCC1NC(=O)C(O)C1O (stereo not shown) [Compound 17, 3,4-Dihydroxy-5-(nonylthiomethyl)pyrrolidin-2-one] | inhibit las activity at all concentrations tested but only with moderate potency | 106 ± 3 | – | 115 ± 11 | 135 ± 5 | stimulated rhl activities with moderate potency | – |
| CCCCCCSCC1NC(O)C(O)C1O (stereo not shown) [Compound 20, 3,4-Dihydroxy-5-(hexylthiomethyl)pyrrolidin-2-ol] | inhibit las activity at all concentrations tested but only with moderate potency | 94 ± 8 | 105 ± 3 | 109 ± 12 | 116 ± 18 | stimulated rhl activities with moderate potency | – |
| CCCCCCCCCSCC1NC(O)C(O)C1O (stereo not shown) [Compound 21, 3,4-Dihydroxy-5-(nonylthiomethyl)pyrrolidin-2-ol] | inhibit las activity at all concentrations tested but only with moderate potency | 98 ± 5 | – | 116 ± 9 | 121 ± 14 | stimulated rhl activities with moderate potency | – |
| CCCC(=O)N[C@H]1CCOC1=O [Compound C4-AHL, N-butanoyl-L-homoserine lactone, reference compound] | – | – | – | – | – | activated the rhl β-galactosidase reporter | – |
